We go through one molecule from publication PMC2746281 (PLoS ONE, 2009).

The test system of series [1] is Salmonella typhimurium and Escherichia coli. Conditions: cited from earlier work.
The test system of series [2] is human cord-blood-derived mast cells (CBMC). As to the kind of experiment: FcεRI-mediated degranulation (β-hexosaminidase release) of IgE-anti IgE activated CBMC. Type of series: cell-based. Conditions: Mast cell, 0.5 h, 30 minutes of stimulation. How it is done: (§1) (see Supporting Information; Methods S1). […] Assays of β-hexosaminidase release and TNF-α release were made by stimulating the CBMC with 1 µg/ml of goat anti-human IgE (Vector Laboratories) for 30 minutes or 4 hours, respectively. β-hexosaminidase was measured in the supernatant and in the sonicated cell pellets and its net release calculated. For TNF-α determination, the cell-free supernatants were collected by centrifugation and frozen at −80°C until determination of mediator content by the use of a specific ELISA kit according to manufacturer's instructions (Coulter, France). All assays were performed in duplicate and counts were repeated twice for each well.
(§2) Human CBMC were produced by long-term culture of CD34+ progenitors purified from normal cord-blood. […] At the beginning of the culture, rhIL-3 (1 ng/ml) (R&D Systems Europe, France) was also added to induce maximal expansion of haematopoietic progenitors. After 3 days the IL-3 was removed and 4 days later cells were transferred to a complete serum-free medium containing rmSCF at 100 ng/ml, which was renewed every 7 days thereafter. After 8 weeks in culture ≥99% of the cells were identified as being mast cells by May-Grünwald-Giemsa staining of cytocentrifuged samples.

Series [3] shares this test system. As to the kind of experiment: TNF-α release by IgE-anti IgE-activated CBMC (ELISA). Conditions: Mast cell, 4 hours of stimulation. The class given is cell-based. How it is done: as §1, §2

Turning to `Cc1ccc(NC(=O)c2ccc(CN3CCN(C)CC3)cc2)cc1Nc1nccc(-c2cccnc2)n1` [imatinib, reference compound], the “bacterial reverse mutation test” value in series [1] was “positive”. Also, the inhibition at 0.1 µM in series [2] (0.1 µM) worked out at 2%; in series [3] (0.1 µM), 4%. For the same molecule, the inhibition at 1 µM in series [2] (1.0 µM) turned out to be 8%; in series [3] (1.0 µM), 24%. The inhibition at 10 µM in series [2] (10 µM) stood at 19%; in series [3] (10 µM) it was 45%.
